Laboratory results reported in patent US20260166128A1, “HUMAN AMYLIN ANALOG, AND DERIVATIVE THEREOF AND USE THEREOF” (priority 2022, published 2026).
pEC50: −log10 of the molar value. Like-named read-outs stand apart in the source and are kept apart here. Numbered stars: 1 amine (or outer) side, 2 acyl side, 3 side chain; on linkers, the order of the positions; unused ones are H or OH. Bridge positions count the residues as written; N and C are the ends. Square brackets hold non-standard residues; d marks the D form. Side chains are listed from the residue outwards. Peptide text beside a SMILES is read from it. * marks the point of attachment. C20 diacid = O=C(O)CCCCCCCCCCCCCCCCCCC(=O)*; C18 diacid = O=C(O)CCCCCCCCCCCCCCCCC(=O)*; γGlu = O=C(O)[C@H](CCC(=O)[*:2])N[*:1]; Hyp = O=C(O)[C@@H]1C[C@@H](O)CN1; AEEA = NCCOCCOCC(=O)O

Target: T1, human amylin receptor (Homo sapiens, UniProt O60896+P30988)
T1 construct: host or cells: CHO-K1/Ga15/AMY3 cells, further stably transfected with a CRE-luciferase plasmid
T1 sequence (P30988 25-474): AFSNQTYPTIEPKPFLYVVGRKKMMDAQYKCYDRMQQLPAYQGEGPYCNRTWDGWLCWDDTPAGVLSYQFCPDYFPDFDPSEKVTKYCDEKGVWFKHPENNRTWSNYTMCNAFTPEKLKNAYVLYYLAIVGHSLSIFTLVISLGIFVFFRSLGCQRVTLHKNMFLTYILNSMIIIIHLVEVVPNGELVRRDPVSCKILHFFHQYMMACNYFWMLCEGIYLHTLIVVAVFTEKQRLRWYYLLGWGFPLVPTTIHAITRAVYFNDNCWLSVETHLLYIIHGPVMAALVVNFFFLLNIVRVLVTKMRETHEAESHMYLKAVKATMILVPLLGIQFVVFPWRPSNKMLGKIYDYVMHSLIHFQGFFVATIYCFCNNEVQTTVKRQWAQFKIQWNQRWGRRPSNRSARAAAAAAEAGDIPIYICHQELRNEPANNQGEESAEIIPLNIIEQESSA
T1 sequence (O60896 24-148 partner): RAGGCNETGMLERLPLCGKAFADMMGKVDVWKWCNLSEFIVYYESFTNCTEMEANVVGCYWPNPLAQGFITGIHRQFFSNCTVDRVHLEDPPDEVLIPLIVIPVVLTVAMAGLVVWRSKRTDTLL
Test: Luciferase assay of amylin derivatives in amylin receptor/CRE-luc CHO cell line
Assay type: cell-based
Conditions: 24 hours incubation, F12 medium containing 10% FBS

[1] = CHO-K1/Ga15/AMY3 CRE-luc cells, read-out: EC50

Description: The experiment was intended to detect the activity or efficacy of the amylin derivatives on a human amylin receptor in vitro by luciferase assay.
50 μL of growth medium (F12 medium containing 10% FBS) was added into each well of a white 96-well plate, and the stably transfected amylin/CRE-lue CHO cells were inoculated into the white 96-well plate at a density of about 20,000 cells/well for activity determination.

Row | pEC50 [1] | Structure (SMILES) | pEC50 (EC50, CHO-K1/Ga15/AMY3 CRE-luc cells)
1 | – | CC[C@H](C)[C@H](NC(=O)[C@@H]1CCCN1C(=O)CNC(=O)[C@H](CC(C)C)NC(=O)[C@H](CC(N)=O)NC(=O)[C@H](CC(N)=O)NC(=O)[C@H](CO)NC(=O)[C@H](CCCCNC(=O)COCCOCCNC(=O)COCCOCCNC(=O)CC[C@H](NC(=O)CCCCCCCCCCCCCCCCC(=O)O)C(=O)O)NC(=O)[C@H](Cc1c[nH]cn1)NC(=O)[C@H](CCCNC(=N)N)NC(=O)[C@H](CC(C)C)NC(=O)[C@H](Cc1ccccc1)NC(=O)[C@H](CC(=O)O)NC(=O)[C@H](C)NC(=O)[C@H](CC(C)C)NC(=O)[C@H](CCCNC(=N)N)NC(=O)[C@H](CCC(N)=O)NC(=O)[C@@H](NC(=O)[C@H](C)NC(=O)[C@@H]1CSSC[C@H](NC(=O)[C@@H](N)CCCNC(=N)N)C(=O)N[C@@H](CC(N)=O)C(=O)N[C@@H]([C@@H](C)O)C(=O)N[C@@H](C)C(=O)N[C@@H]([C@@H](C)O)C(=O)N1)[C@@H](C)O)C(=O)N[C@@H](CC(C)C)C(=O)N1CCC[C@H]1C(=O)N1CCC[C@H]1C(=O)N[C@H](C(=O)N[C@@H](CC(N)=O)C(=O)N[C@H](C(=O)NCC(=O)N[C@@H](CO)C(=O)N[C@@H](CC(N)=O)C(=O)N[C@H](C(=O)N1C[C@H](O)C[C@H]1C(N)=O)[C@@H](C)O)C(C)C)[C@@H](C)O [PD101] (H-RCNTATCATQRLADFLRHK([AEEA-AEEA-γGlu-C18 diacid])SNNLGPILPPTNVGSNT[Hyp]-NH2; disulfide 2-7) | 10.92
2 | 10.48 | CC[C@H](C)[C@H](NC(=O)[C@H](CCCCNC(=O)CC[C@H](NC(=O)CCCCCCCCCCCCCCCCCCC(=O)O)C(=O)O)NC(=O)CNC(=O)[C@H](CC(C)C)NC(=O)[C@H](CC(N)=O)NC(=O)[C@H](CC(N)=O)NC(=O)[C@H](CO)NC(=O)[C@H](CO)NC(=O)[C@H](Cc1c[nH]cn1)NC(=O)[C@H](CCCNC(=N)N)NC(=O)[C@H](CC(C)C)NC(=O)[C@H](Cc1ccccc1)NC(=O)[C@H](CC(=O)O)NC(=O)[C@H](C)NC(=O)[C@H](CC(C)C)NC(=O)[C@H](CCCNC(=N)N)NC(=O)[C@H](CCC(N)=O)NC(=O)[C@@H](NC(=O)[C@H](C)NC(=O)[C@@H]1CSSC[C@H](NC(=O)[C@@H](N)CCCNC(=N)N)C(=O)N[C@@H](CC(N)=O)C(=O)N[C@@H]([C@@H](C)O)C(=O)N[C@@H](C)C(=O)N[C@@H]([C@@H](C)O)C(=O)N1)[C@@H](C)O)C(=O)N[C@@H](CC(C)C)C(=O)N1CCC[C@H]1C(=O)N1CCC[C@H]1C(=O)N[C@H](C(=O)N[C@@H](CC(N)=O)C(=O)N[C@H](C(=O)NCC(=O)N[C@@H](CO)C(=O)N[C@@H](CC(N)=O)C(=O)N[C@H](C(=O)N1C[C@H](O)C[C@H]1C(N)=O)[C@@H](C)O)C(C)C)[C@@H](C)O [PD102] (H-RCNTATCATQRLADFLRHSSNNLGK([γGlu-C20 diacid])ILPPTNVGSNT[Hyp]-NH2; disulfide 2-7) | –
3 | 10.96 | CC[C@H](C)[C@H](NC(=O)[C@H](CCCCNC(=O)CC[C@H](NC(=O)CCCCCCCCCCCCCCCCC(=O)O)C(=O)O)NC(=O)CNC(=O)[C@H](CC(C)C)NC(=O)[C@H](CC(N)=O)NC(=O)[C@H](CC(N)=O)NC(=O)[C@H](CO)NC(=O)[C@H](CO)NC(=O)[C@H](Cc1c[nH]cn1)NC(=O)[C@H](CCCNC(=N)N)NC(=O)[C@H](CC(C)C)NC(=O)[C@H](Cc1ccccc1)NC(=O)[C@H](CC(=O)O)NC(=O)[C@H](C)NC(=O)[C@H](CC(C)C)NC(=O)[C@H](CCCNC(=N)N)NC(=O)[C@H](CCC(N)=O)NC(=O)[C@@H](NC(=O)[C@H](C)NC(=O)[C@@H]1CSSC[C@H](NC(=O)[C@@H](N)CCCNC(=N)N)C(=O)N[C@@H](CC(N)=O)C(=O)N[C@@H]([C@@H](C)O)C(=O)N[C@@H](C)C(=O)N[C@@H]([C@@H](C)O)C(=O)N1)[C@@H](C)O)C(=O)N[C@@H](CC(C)C)C(=O)N1CCC[C@H]1C(=O)N1CCC[C@H]1C(=O)N[C@H](C(=O)N[C@@H](CC(N)=O)C(=O)N[C@H](C(=O)NCC(=O)N[C@@H](CO)C(=O)N[C@@H](CC(N)=O)C(=O)N[C@H](C(=O)N1C[C@H](O)C[C@H]1C(N)=O)[C@@H](C)O)C(C)C)[C@@H](C)O [PD104] (H-RCNTATCATQRLADFLRHSSNNLGK([γGlu-C18 diacid])ILPPTNVGSNT[Hyp]-NH2; disulfide 2-7) | –
